Experimental data reported in patent US4414408A, “Phenolic antioxidants” (The Goodyear Tire & Rubber Company, priority 1982, dated 1983).

Assay: Oxygen absorption (time to absorb one percent oxygen)
Conditions: 1.0 part antioxidant in SBR-1006

C=CC(=O)Oc1c(Cc2cc(C)cc(C(C)(C)C)c2O)cc(C)cc1C(C)(C)C [Example 8, 2-(2-hydroxy-3-tert.butyl-5-methylbenzyl)-4-methyl-6-tert.butyl phenyl acrylate]
Hours to Absorb 1% O2: 315 h
